Experiments:
Assay in all cases: relative viability (nuclei count vs DMSO), 5 days (fraction); higher = more cells survive
[1] = compound: CCNC(=O)c1noc(-c2cc(C(C)C)c(O)cc2O)c1-c1ccc(CN2CCOCC2)cc1 [Luminespib]
Procedure, shortened: (§1)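 MetaXpress counted nuclei in 4× images of lung cancer cell lines that had been fixed, permeabilised and Hoechst-stained in one step. Before that, cells in 1536-well plates were kept overnight at 37 °C, pinned with five √10-spaced library-drug doses on vehicle-anchored plates, and cultured 5 days without medium change. Viability takes treated-well nuclei over vehicle-well nuclei and uses the median across plates. Plates were accepted only at control CV below 25% and at least one doubling.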

[2] = compound: Cc1cn(-c2cc(NC(=O)c3ccc(C)c(Nc4nccc(-c5cccnc5)n4)c3)cc(C(F)(F)F)c2)cn1 [Nilotinib]
Procedure, shortened: as §1

[3] = compound: CN1CCN(CCOc2cc(OC3CCOCC3)c3c(Nc4c(Cl)ccc5c4OCO5)ncnc3c2)CC1 [Saracatinib]
Procedure, shortened: as §1

[4] = compound: Nc1cccc2c1CN(C1CCC(=O)NC1=O)C2=O [Lenalidomide]
Procedure, shortened: as §1

[5] = compound: CC1=CSC(=NC2CCCCC2)N1/N=C/C3=C(C(=C(C=C3)O)O)O [MIM1]
Procedure, shortened: as §1

| Cell Line | relative viability ([1]; 0.002 µM) | relative viability ([1]; 0.006325 µM) | relative viability ([1]; 0.01 µM, anchor plate) | relative viability ([1]; 0.02 µM) | relative viability ([1]; 0.06325 µM) | relative viability ([1]; 0.2 µM) | relative viability ([2]; 0.001 µM) | relative viability ([2]; 0.003162 µM) | relative viability ([2]; 0.01 µM) | relative viability ([2]; 0.03162 µM) | relative viability ([2]; 0.1 µM) | relative viability ([3]; 0.02 µM) | relative viability ([3]; 0.2 µM) | relative viability ([3]; 0.6325 µM) | relative viability ([3]; 2 µM) | relative viability ([4]; 0.253 µM) | relative viability ([4]; 0.8 µM) | relative viability ([4]; 2.53 µM) | relative viability ([4]; 8 µM) | relative viability ([5]; 0.2 µM) | relative viability ([5]; 0.6325 µM) | relative viability ([5]; 2 µM) | relative viability ([5]; 6.325 µM) | relative viability ([5]; 20 µM) |
| --- | --- | --- | --- | --- | --- | --- | --- | --- | --- | --- | --- | --- | --- | --- | --- | --- | --- | --- | --- | --- | --- | --- | --- | --- |
| NCI-H1915 | 0.86 | 0.878 | 0.795 | 0.878 | 0.859 | 0.119 | 0.916 | 1.07 | 1.11 | 0.955 | 0.432 | 0.993 | 0.91 | 1.02 | 0.911 | 0.971 | 0.836 | 1.08 | 0.96 | 1.01 | 0.702 | 0.922 | 0.477 | 0.398 |
| NCI-H838 | 0.983 | 0.92 | 0.298 | 0.554 | 0.177 | 0.186 | 0.924 | 1.02 | 1.06 | 0.863 | 0.992 | 0.96 | 0.897 | 0.898 | 0.772 | 0.969 | 0.879 | 1.07 | 0.823 | 0.967 | 0.959 | 0.786 | 0.78 | 0.372 |
| NCI-H1623 | 1.02 | 0.959 | 0.529 | 0.712 | 0.716 | 0.302 | 1.1 | 0.885 | 1.08 | 0.889 | 0.927 | 0.993 | 0.852 | 1.11 | 0.67 | 1.08 | 0.932 | 1.05 | 0.869 | 0.922 | 0.965 | 1.03 | 0.945 | 0.46 |
| NCI-H1648 | 0.671 | 0.811 | – | 0.837 | 0.742 | 0.413 | 0.79 | 0.738 | 0.829 | 0.605 | 0.757 | 0.895 | 0.553 | 1.52 | 0.727 | 0.93 | 0.732 | 1.29 | 0.705 | 1.01 | 0.929 | 0.989 | 0.635 | 0.283 |
| SW 900 | 0.945 | 0.732 | 0.18 | 0.474 | 0.138 | 0.132 | 0.748 | 0.939 | 1.07 | 0.639 | 0.611 | 0.97 | 0.658 | 0.878 | 0.694 | 0.809 | – | 1.03 | 0.598 | 0.915 | 0.947 | 0.782 | 0.502 | 0.158 |
| NCI-H1792 | 0.926 | 0.71 | 0.52 | 0.348 | 0.167 | 0.107 | 0.706 | 0.817 | 1.07 | – | 0.831 | 1.09 | 0.726 | 1.03 | 0.776 | 1.09 | 0.715 | 1.35 | 0.419 | 0.966 | 0.79 | 0.728 | 0.76 | 0.659 |
| NCI-H522 | 0.945 | 0.935 | 1.16 | 0.73 | 0.617 | 0.391 | – | 0.974 | 0.996 | 0.89 | 0.722 | 0.917 | 0.705 | 0.907 | 0.732 | 0.896 | 0.816 | 1.07 | 0.886 | 1.13 | 0.893 | 0.865 | 0.859 | 0.607 |
| NCI-H2170 | 0.974 | 0.945 | 0.732 | 0.586 | 0.793 | 0.179 | 0.864 | 1.16 | 1.2 | 0.875 | 0.952 | 1 | 0.926 | 0.986 | 0.689 | 1 | 0.979 | 1.01 | 0.782 | 0.943 | 0.907 | 1.02 | 0.603 | 0.28 |
| HCC-366 | 0.988 | 0.987 | – | 0.998 | 0.0511 | 0.053 | 0.982 | 1.12 | 1.24 | 0.971 | 0.527 | 1.07 | 0.731 | 0.952 | 0.77 | 1.02 | 0.989 | 1.07 | 0.934 | 0.991 | – | 0.973 | 0.216 | 0.0492 |
| ChaGo-K-1 | 1.07 | 1.01 | 0.666 | 0.978 | 0.816 | 0.335 | 0.926 | 1.16 | 1.11 | 0.789 | 0.532 | 0.992 | 0.807 | 1.05 | 0.927 | 0.946 | 1.05 | 1.04 | 1.01 | 0.995 | 0.896 | 0.971 | 0.738 | 0.235 |
| NCI-H2347 | 1.02 | 0.721 | 0.421 | 0.911 | 0.722 | 0.318 | 0.97 | 1.14 | 1.13 | 0.841 | 0.793 | 0.983 | 0.903 | 1.09 | 1.06 | 1.03 | 1.13 | 1.17 | 0.9 | 1.1 | 0.972 | 1.09 | 0.757 | 0.478 |
| NCI-H1437 | 0.977 | 0.943 | 1.12 | 1.02 | 0.743 | 0.26 | 0.955 | 0.988 | 1.12 | 0.868 | 0.958 | 1.02 | 1.02 | 1.04 | 0.971 | 1.02 | 0.939 | 1.05 | 1.01 | 0.956 | 0.927 | 1 | 0.714 | 0.273 |
| NCI-H2087 | 1.07 | 0.894 | 0.192 | 0.625 | 0.143 | 0.122 | 0.813 | 0.981 | 0.992 | 0.443 | 0.299 | 1.11 | 0.873 | 1.11 | 1.01 | 1.03 | 0.892 | 1.14 | 0.888 | 1.03 | 0.943 | 1.03 | 0.696 | 0.583 |
| BEN | 0.944 | 0.925 | 0.383 | 0.442 | 0.656 | 0.355 | 0.876 | 1.03 | 0.929 | 0.926 | 0.786 | 1.11 | 0.755 | 1.05 | 0.759 | 1.09 | 0.892 | 1.12 | 0.731 | 1.02 | 0.914 | 1.01 | 0.853 | 0.323 |
| NCI-H2126 | 0.967 | 0.962 | 0.919 | 0.646 | 0.756 | 0.26 | 0.995 | 1.09 | 1.03 | 0.937 | 0.601 | 1.07 | 0.965 | 0.931 | 0.816 | 1.01 | 0.859 | 1.08 | 0.788 | 1.04 | 0.91 | 1.04 | 0.897 | 0.688 |
| NCI-H647 | 0.953 | 0.935 | 0.174 | 0.674 | 0.0941 | 0.092 | 0.889 | 1.17 | 1.35 | 0.729 | 0.878 | 0.967 | 0.868 | 0.858 | 0.572 | 0.993 | 0.753 | 1.16 | 0.904 | 0.933 | 0.951 | 0.51 | 0.821 | 0.3 |
| EPLC-272H | 0.82 | 0.887 | 0.301 | 0.557 | 0.496 | 0.123 | 0.894 | 0.94 | 0.92 | 0.676 | 0.37 | 0.974 | 0.881 | 1.09 | 0.786 | 1.11 | 0.741 | 1.07 | 0.754 | 0.969 | 0.888 | 0.934 | 0.593 | 0.162 |
| NCI-H1975 | 0.981 | 0.91 | 0.235 | 0.507 | 0.158 | 0.147 | 0.871 | 1 | 0.981 | 0.784 | 0.724 | 1.04 | 0.952 | 1.02 | 0.698 | 1.03 | 0.821 | 1.1 | 0.889 | 0.959 | 0.968 | 0.84 | 0.609 | 0.424 |
| HCC-78 | 0.869 | 0.72 | – | – | 0.999 | 0.4 | 1.06 | 0.937 | 1.07 | 0.84 | 0.746 | 0.956 | 0.815 | 1.08 | 0.834 | 0.885 | 0.861 | 0.957 | 0.618 | 1.07 | 0.549 | 0.888 | 0.677 | 0.424 |
| NCI-H358 | 0.966 | 0.887 | 0.352 | 0.512 | 0.115 | 0.111 | 0.831 | 1.18 | 1.12 | 0.836 | 0.776 | 0.938 | 0.822 | 0.568 | 0.409 | 0.908 | 1.01 | 0.893 | 1.08 | 1.01 | 0.953 | 0.86 | 0.429 | 0.237 |
| LCLC-97TM1 | 0.878 | 0.814 | 0.77 | 0.466 | 0.528 | 0.0858 | – | 0.984 | 1.06 | 0.834 | 0.368 | 0.986 | 0.712 | 1.19 | 0.974 | 0.943 | 0.932 | 1.05 | 0.616 | 1.02 | 0.767 | 0.703 | 0.456 | 0.144 |
| Calu-6 | 1.03 | 0.892 | – | 0.899 | 0.136 | 0.122 | 0.937 | 1.07 | 1.09 | 0.781 | 0.891 | 0.923 | 0.902 | 0.926 | 0.755 | 0.973 | 1.02 | 1.09 | 1.02 | 1.03 | 0.928 | 0.967 | 0.444 | 0.242 |
| NCI-H1703 | 1.12 | 0.899 | – | 0.708 | 0.134 | 0.14 | 0.795 | 0.684 | 0.538 | 0.286 | – | 0.93 | 0.772 | 0.448 | 0.326 | 0.991 | 0.923 | 1.01 | 0.904 | 0.897 | 1 | 0.878 | 0.205 | 0.133 |
